We go through seven compounds from patent US7759350B2, “Pyrimidine carboxamides” (Orchid Research Laboratories Ltd., priority 2005, dated 2010).

The target in series [1] is purified recombinant COX-1 enzyme (Homo sapiens, UniProt P23219). The experiment in a line: COX-1 enzyme based assay. It is filed as biochemical. The following applies: Conc. 10 μM. The procedure:
(§1) COX-1 and COX-2 Enzyme Based Assay
(§2) COX-2 enzyme based assays were carried out to check the inhibitory potential of test compounds on the production of prostaglandin by purified recombinant COX-1/COX-2 enzyme (Proc. Nat. Acad. Sci. USA, 88, 2692-2696, 1991; Clin. Immunoassay 15, 116-120, 1992) In this assay, the potential of the test compound to inhibit the production of prostaglandin either by COX-1 or COX-2 from arachidonic acid (substrate) was measured. This was an enzyme based in-vitro assay to evaluate selective COX inhibition with good reproducibility.
(§3) Arachidonic acid was converted to PGH2 (Intermediate product) by COX1/COX-2 in presence or absence of the test compound. The reaction was carried out at 37° C. and after 2 minutes it was stopped by adding 1M HCl. Intermediate products PGH2 was converted to a stable Prostanoid product PGF2α by SnCl2 reduction. The amount of PGF2α produced in the reaction was inversely proportional to the COX inhibitory potential of the test compound. The prostanoid product was quantified via enzyme immunoassay (EIA) using a broadly specific antibody that binds to all the major forms of Prostaglandin, using Cayman ELISA kit as per the procedure outlined by the manufacturer Cayman Chemicals, Ann Arbor, USA).

The target in series [2] is T1, purified recombinant COX-2 enzyme (Homo sapiens, UniProt P35354).
T1 sequence (P35354 18-604): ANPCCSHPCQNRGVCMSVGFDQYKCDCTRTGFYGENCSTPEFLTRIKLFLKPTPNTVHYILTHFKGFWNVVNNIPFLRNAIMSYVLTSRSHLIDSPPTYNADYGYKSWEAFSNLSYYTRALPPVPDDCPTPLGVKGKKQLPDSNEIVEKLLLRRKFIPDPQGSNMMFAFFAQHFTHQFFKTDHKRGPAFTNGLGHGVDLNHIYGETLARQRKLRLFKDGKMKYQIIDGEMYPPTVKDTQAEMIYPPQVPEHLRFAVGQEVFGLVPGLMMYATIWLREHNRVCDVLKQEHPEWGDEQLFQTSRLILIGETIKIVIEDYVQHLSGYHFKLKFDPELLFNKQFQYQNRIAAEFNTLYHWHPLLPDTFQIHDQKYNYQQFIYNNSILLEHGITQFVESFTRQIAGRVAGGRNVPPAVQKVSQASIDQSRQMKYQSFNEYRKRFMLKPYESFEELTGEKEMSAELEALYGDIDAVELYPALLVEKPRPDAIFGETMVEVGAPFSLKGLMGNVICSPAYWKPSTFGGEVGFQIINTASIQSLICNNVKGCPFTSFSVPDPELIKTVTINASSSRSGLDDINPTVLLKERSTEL
Briefly: COX-2 enzyme based assay. The series is classed as biochemical. The following applies: Conc. 10 μM. Here is the method:
as §1, §2, §3

Series [3] has as its system TNF-α. Briefly: In vitro measurement of TNF-α in human PBMC. The series is classed as cell-based. The following applies: LPS; for IC50: TNF-α inhibition. Here is the method: In Vitro Measurement of Tumor Necrosis Factor Alpha (TNF-α)
This assay determines the effect of test compounds on the production of TNF-α in human Peripheral Blood Mononuclear Cells (PBMC). Compounds were tested for their ability to inhibit the activity of TNF-α in human PBMC. PBMC were isolated from blood (from healthy volunteers) using BD Vacutainer CPT™ (Cell preparation tube, BD Bio Science) and suspended in RPMI medium (Physiol. Res. 52; 593-598, 2003). The test compounds were pre-incubated with PBMC (0.5 million/incubation well) for 15 minutes at 37° C. and then stimulated with Lipopolysaccharide (Escherichia coli: B4; 1 μg/ml) for 18 hours at 37° C. in 5% CO2. The levels of TNF-α in the cell culture medium were estimated using enzyme linked Immunosorbent assay performed in a 96 well format as per the procedure of the manufacturer (R&D Systems, Inc. 614 McKinley Place Nebr., Minneapolis, Minn. 55413, USA).

In series [4] the test system is TNF-α. The experiment in a line: LPS induced sepsis for measurement of TNF-α inhibition in mice. The series is classed as in vivo. The following applies: 50 mg/kg bw oral; female Swiss albino mice; serum 90 minutes after LPS. Here is the method: LPS Induced Sepsis for Measurement of TNF-α Inhibition in Mice
The LPS induced sepsis model in mice was performed as described by Les sekut et al (J Lab Clin Med 1994; 124:813-20). Female Swiss albino mice were selected with their body weights being equivalent within each group. The mice were fasted for 20 hours with free access to water. The mice were dosed orally with the test compound suspended in vehicle containing 0.5% Tween 80 in 0.25% Carboxy-methylcellulose sodium salt. The control mice were administered the vehicle alone. After 30 minutes of oral dosing, the mice were injected with 500 μg of Lipopolysaccharide (Escherichia coli, LPS: B4 from Sigma) in phosphate buffer saline solution into the intraperitoneal cavity of the mice. After 90 minutes of LPS administration, the mice were bled via retro-orbital sinus puncture. Blood samples were stored overnight at 4° C. Serum samples were collected by centrifuging the samples at 4000 rpm for 15 minutes at 4° C. Immediately the serum samples were analysed for TNF-α levels, using commercially available mouse TNF-α ELISA kit (Amersham Biosciences) and assay was performed by the manufacturer instruction.

The subject of a further series is NCI-H460. Briefly: Anti-cancer screen (MTT), NCI-H460. It is filed as cell-based. The following applies: Homo sapiens, NCI-H460; 48 hours, MTT. The procedure:
Experimental drugs are screened for anti-cancer activity in three cell lines for their GI50, TGI and LC50 values (using five concentrations for each compound). The cell lines are maintained in DMEM containing 10% fetal bovine serum. 96 well microtiter plates are inoculated with cells in 100 μL for 24 h at 37° C., 5% CO2, 95% air and 100% relative humidity. 5000 HCT116 cells/well, 5000 NCIH460 cells/well, 10000 U251 cells/well and 5000 MDAMB231 cells/well are plated. A separate plate with these cell lines is also inoculated to determine cell viability before the addition of the compounds (T0).
Following 24 hours incubation, experimental drugs are added to the 96 well plates. […] Compounds are dissolved in dimethylsulfoxide (DMSO) to make 20 mM stock solutions on the day of drug addition and frozen at −20° C. […] Standard drugs whose anti-cancer activity has been well documented and which are regularly used are doxorubicin and SAHA.
Cells are incubated with compounds for 48 hours followed by the addition of 10 μL 3-(4,5-Dimethyl-2-thiazolyl)-2,5-diphenyl-2H-tetrazolium (MTT) solution per well and a subsequent incubation at 37° C., 5% CO2, 95% air and 100% relative humidity, protected from light. After 4 hours, well contents are aspirated carefully followed by addition of 150 μL DMSO per well. Plates are agitated to ensure solution of the formazan crystals in dimethylsulphoxide and absorbance read at 570 nm.
Percent growth is calculated for each compound's concentration relative to the control and zero measurement wells (To; viability right before compound addition). If a test well's O.D. value is greater than the To measurement for that cell line % Growth=(test−zero)/(control−zero)×100
If a test well's O.D. value is lower than the T0 measurement for that cell line, […]

A further series concerns the target T2, COX-2 (Homo sapiens, UniProt P35354).
T2 construct: Fresh blood was collected in tubes containing sodium heparin by vein puncture from healthy male volunteers; endogenous in cells; host or cells: human whole blood from healthy male volunteers, stimulated with LPS
T2 sequence (P35354 18-604): T1 sequence (P35354 18-604)
Briefly: Human whole blood assay, COX-2 inhibition (PGE2 after LPS). The following applies: LPS stimulated; for inhibition at 0.25 µM: Conc. 0.25 μM. The series is classed as cell-based. Here is the method:
Human whole blood provides a protein and cell rich milieu appropriate for the study of biochemical efficacy of anti-inflammatory compounds such as selective COX-2 inhibitors. […] This is correlating with the observation that COX-2 inhibitors have no effect on prostaglandin E2 (PGE2) production in normal blood. These inhibitors were active only after incubation of human blood with lipopolysaccharide (LPS), which induces COX-2 production in the blood.
Fresh blood was collected in tubes containing sodium heparin by vein puncture from healthy male volunteers. […] Then test compounds (at various concentrations) or vehicle were added to blood. After that blood was stimulated with LPS B: 4 (10 μg/ml) and incubated for another 18 hours at 37° C. water bath. After which the blood was centrifuged, plasma was separated and stored at −80° C. (J. Pharmacol. Exp. Ther, 271, 1705, 1994; Proc. Natl. Acad. Sci. USA., 96, 7563, 1999). The plasma was assayed for PGE2 using Cayman ELISA kit as per the procedure outlined by the manufacturer (Cayman Chemicals, Ann Arbor, USA).

A further series has as its system IL-6. Briefly: In vitro measurement of IL-6 in human PBMC. The series is classed as cell-based. The following applies: Conc. 0.1 μM, LPS. Here is the method:
(§4) In vitro Measurement of Interleukin-6 (IL-6) & Interleukin-1β (IL1β)
(§5) This assay determines the effect of test compounds on the production of IL-6 and IL1β in human PBMC (Physiol. Res. 52: 593-598, 2003). Compounds were tested for their ability to inhibit the activity of IL-6 and IL1β in human PBMC. PBMC were isolated from blood using BD Vacutainer CPT™ Cell preparation tube (BD Bio Science) and suspended in RPMI medium. The test compounds were preincubated with PBMC (0.5 million/incubation well) for 15 minutes at 37° C. and then stimulated with Lipopolysaccharide (Escherichia coli: B4; 1 μg/ml) for 18 hours at 37° C. in 5% CO2. The levels of IL-6 and IL1β in cell culture medium were estimated using enzyme linked Immunosorbent assay performed in a 96 well format as per the procedure of the manufacturer (R&D Systems, Inc. 614 McKinley Place Nebr., Minneapolis, Minn. 55413, USA).

The test system of a further series is IL-1β. Briefly: In vitro measurement of IL-1β in human PBMC. The series is classed as cell-based. The following applies: Conc. 0.1 μM, LPS. Here is the method:
as §4, §5

Sequence of purified recombinant COX-1 enzyme (P23219 24-599): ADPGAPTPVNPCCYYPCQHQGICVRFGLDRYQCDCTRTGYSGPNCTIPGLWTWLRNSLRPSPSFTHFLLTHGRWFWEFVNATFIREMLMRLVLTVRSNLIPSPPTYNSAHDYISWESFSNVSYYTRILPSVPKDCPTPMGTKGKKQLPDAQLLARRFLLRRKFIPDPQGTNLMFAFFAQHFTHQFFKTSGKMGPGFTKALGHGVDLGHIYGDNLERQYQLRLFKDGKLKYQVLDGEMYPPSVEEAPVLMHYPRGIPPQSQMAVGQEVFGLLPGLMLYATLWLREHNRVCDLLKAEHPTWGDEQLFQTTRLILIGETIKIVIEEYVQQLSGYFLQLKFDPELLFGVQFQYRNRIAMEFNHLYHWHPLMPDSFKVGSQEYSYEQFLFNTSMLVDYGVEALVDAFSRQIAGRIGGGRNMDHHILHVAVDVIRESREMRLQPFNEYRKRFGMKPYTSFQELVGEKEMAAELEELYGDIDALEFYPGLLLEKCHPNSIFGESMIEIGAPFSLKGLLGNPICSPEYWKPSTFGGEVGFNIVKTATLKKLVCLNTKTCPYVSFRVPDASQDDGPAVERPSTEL

In the case of `CSc1nc(-c2ccncc2)nc(NCCO)c1C(=O)Nc1ccc(C)cc1` [Example 35, 4-[(2-Hydroxyethyl)amino]-N-(4-methylphenyl)-6-(methylthio)-2-pyridin-4-ylpyrimidine-5-carboxamide], the inhibition at 10 µM in [1] is 15.2%. Moreover, the inhibition at 10 µM in series [2] stood at 26.8%. In the series with TNF-α [3], this compound came in with an IC50 of 1.8 µM and an inhibition at 1 µM of 52.7%. Also, the “TNF-α Inhibition (%) at 50 mg/kg bw” value in the series on TNF-α [4] came out at 59.94%. It took 9 µM to inhibit growth with NCI-H460 by half (GI50).

Regarding `CNc1nc(-c2ccc(S(N)(=O)=O)cc2)nc(SC)c1C(=O)Nc1ccc(C)cc1` [Example 12, 2-[4-(Aminosulfonyl)phenyl]-4-(methylamino)-N-(4-methylphenyl)-6-(methylthio)pyrimidine-5-carboxamide], the inhibition at 0.25 µM on COX-2 worked out at 24.9%.

Take `CNc1nc(-c2ccc(S(N)(=O)=O)cc2)nc(NC)c1C(=O)Nc1ccc(C)cc1` [Example 13, 2-[4-(Aminosulfonyl)phenyl]-4,6-bis(methylamino)-N-(4-methylphenyl)pyrimidine-5-carboxamide]: testing at 0.25 µM on COX-2 gave an inhibition of 24.5%. The same compound returned an inhibition at 0.1 µM in the series with IL-6 of 21.5%. In the series with IL-1β, the “IL-1β Inhibition (%)” value was “Not active”.

For the compound `CSc1nc(-c2ccncc2)nc(NCCO)c1C(=O)Nc1ccc(C)c(C)c1` [Example 37, N-(3,4-Dimethylphenyl)-4-[(2-hydroxyethyl)amino]-6-(methylthio)-2-pyridin-4-ylpyrimidine-5-carboxamide], the inhibition at 10 µM in series [1] is 6.58%. Besides, in series [2], the inhibition at 10 µM stood at 17.1%. In the series on TNF-α [3], this compound came in with a half-maximal inhibitory concentration (IC50) of 1.5 µM and an inhibition at 1 µM of 42.7%. Moreover, the “TNF-α Inhibition (%) at 50 mg/kg bw” value with TNF-α [4] is recorded as 66.65%.

In the case of `CNc1nc(-c2cccnc2)nc(NC)c1C(=O)Nc1ccc(OC)cc1` [Example 28, N-(4-Methoxyphenyl)-4,6-bis(methylamino)-2-pyridin-3-ylpyrimidine-5-carboxamide], in series [1], the inhibition at 10 µM stood at 25.5%. In addition, the inhibition at 10 µM in [2] came out at 23.2%. In the series on TNF-α [3], this compound had an IC50 of 0.9 µM and an inhibition at 1 µM of 45.1%. Also, the “TNF-α Inhibition (%) at 50 mg/kg bw” value with TNF-α [4] is listed as 81.5%.

For the compound `CNc1nc(-c2ccc(S(N)(=O)=O)cc2)nc(NC)c1C(=O)Nc1ccc(C)c(C)c1` [Example 10, 2-[4-(Aminosulfonyl)phenyl]-4,6-bis(methylamino)-N-(3,4-dimethylphenyl)pyrimidine-5-carboxamide], at COX-2 (Conc. 10 μM), 10 µM produced 24.2% inhibition.

In turn, `CNc1nc(-c2cccnc2)nc(SC)c1C(=O)Nc1ccc(OC)cc1` [Example 6, N-(4-Methoxyphenyl)-4-(methylamino)-6-(methylthio)-2-pyridin-3-ylpyrimidine-5-carboxamide] yielded a melting point of 184 to 197 °C. Moreover, in series [1], the inhibition at 10 µM came to 28.8%. Moreover, the inhibition at 10 µM in series [2] was 19.3%. The compound further had a 50% inhibitory concentration (IC50) in the series with TNF-α [3] of 0.86 µM. Further, the inhibition at 0.1 µM in the series with TNF-α [3] (at 0.1 μM) is 30.3%. Moreover, the “TNF-α Inhibition (%) at 50 mg/kg bw” value with TNF-α [4] is reported as 77.0%.
